Reference: publication PMC12096346, “Disposable Face Masks for Noninvasive Drug Detection: A Proof-of-Concept Study with Cough Syrup Constituents” (Analytical Chemistry, 2025)
Where two headings read alike, the source gives them in different places.

Legend:
[1] = Comparative urine analysis after ingesting cough syrup (LC-MS/MS, creatinine-normalized); format: in vivo, humans; conditions: 15 mL cough syrup oral; for k el / MRT / Tmax / half-life: human, in vivo; for MRT: reciprocal of kel; for Tmax: seven volunteers; for half-life: time from Cmax to half of Cmax
Protocol: Before analysis, the urine samples were thawed at room temperature and centrifuged at 6,000g to remove coarse material. Subsequently, 1 mL of the supernatant was combined with 10 μL of the internal standard mixture (containing 10 ng/mL Cod-d 6 and Clp-d 6) and loaded onto C18 solid-phase extraction (SPE) columns for sample cleanup, following previously established protocols. The SPE eluate was then dried under a nitrogen stream and redissolved in 100 μL of methanol before analysis using the same LC–MS/MS method described earlier for mask sample analysis. In a separate LC–MS/MS analysis, urinary creatinine concentration was determined using creatinine-d 3 as an internal standard, as reported previously.
Grubb’s test was conducted to identify outliers. The biological half-life (t 1/2) of individual drugs was calculated as the time for their concentration in exhaled breath or urine to decrease from its maximum (C max) to half of C max. The elimination rate constant (k el) and mean residence time (MRT) of each drug were determined from the slope of the elimination phase of the exhaled breath or urine concentration curve plotted on a semilogarithmic scale and by taking the reciprocal of the elimination rate constant, respectively.

[2] = Drug clearance study by breathing through face masks (exhaled breath, LC-MS/MS); conditions: for MRT / Tmax / half-life / k el: both, human, in vivo, po, 15 mL
[3] = reported in the literature, ref numbers not given; cited from earlier work
clinical = conditions: both, human, in vivo, po
[4] = PubChem, cited from earlier work
[5] = both, human, in vivo, po
[6] = exhaled breath, 15 mL cough syrup oral

Row | SMILES | detection window [1] [h] | k el [1] [s⁻¹] | MRT [1] [h] | Tmax [1] [h] | half-life [1] [h] | MRT [2] [h] | Tmax [2] [h] | half-life [2] [h] | k el [2] [s⁻¹] | Cmax in exhaled breath [2, 6] [ng/m^3] | detection window [2, 6] [h] | plasma t1/2 [3] | MRT (clinical) [h] | Tmax (clinical) [h] | k el (clinical) [s⁻¹] | pKa [4] | pKa ([4]; listed as Clp) | detection window [5] [h] | half-life (clinical) [h]
1 | CN[C@@H](C)[C@H](O)c1ccccc1 [Ephedrine] | 79.9 ± 11.4 | 2.78e-05 | 10.4 ± 3.3 | 2.7 ± 1.8 | 6.2 ± 0.6 | 14.5 ± 4.1 | 6.9 ± 1.1 | 10 ± 2.8 | 2.78e-05 | 10.8 ± 1.6 | 92.6 ± 9.1 | approximately 6 h | – | – | – | – | – | – | –
2 | CN(C)CCC(c1ccc(Cl)cc1)c1ccccn1 (stereo not shown) [Chlorpheniramine] | – | – | – | – | – | – | – | – | – | – | – | – | 34.2 ± 4.6 | 13.1 ± 5 | 8.33e-06 | 9.5^36 | ~9.5 | – | –
3 | COc1ccc2c3c1O[C@H]1[C@@H](O)C=C[C@H]4[C@@H](C2)N(C)CC[C@@]341 [Codeine] | 68.2 ± 8.3 | 8.33e-05 | 4.6 ± 2.1 | 2.1 ± 1.3 | 3.3 ± 0.7 | 3.9 ± 0.8 | 1.9 ± 1 | 2.9 ± 0.8 | 8.33e-05 | – | 61.3 ± 12.7 | 2 to 3 h | – | – | – | – | – | – | –
4 | COc1ccccc1OCC(O)CO (stereo not shown) [Guaifenesin] | – | – | – | – | – | – | – | – | – | – | – | ~1 h | 4.8 ± 4.2 | 0.9 ± 0.2 | 0.000111 | – | – | 65.1 ± 18.1 | 2.1 ± 0.9
